In publication PMC11489226 (Archives of Toxicology, 2024):
Values joined by “and” are separate entries in the source; they are usually repeats but may differ in a detail not shown here. Equal values may be shown once.

Experiments:
CYP1A2 = target: T1, CYP1A2 (Homo sapiens, UniProt P05177); assay: Metabolism in transgenic HEK293 cells expressing CYP1A2 (LC-MS/MS of supernatant)
T1 sequence (P05177 1-516): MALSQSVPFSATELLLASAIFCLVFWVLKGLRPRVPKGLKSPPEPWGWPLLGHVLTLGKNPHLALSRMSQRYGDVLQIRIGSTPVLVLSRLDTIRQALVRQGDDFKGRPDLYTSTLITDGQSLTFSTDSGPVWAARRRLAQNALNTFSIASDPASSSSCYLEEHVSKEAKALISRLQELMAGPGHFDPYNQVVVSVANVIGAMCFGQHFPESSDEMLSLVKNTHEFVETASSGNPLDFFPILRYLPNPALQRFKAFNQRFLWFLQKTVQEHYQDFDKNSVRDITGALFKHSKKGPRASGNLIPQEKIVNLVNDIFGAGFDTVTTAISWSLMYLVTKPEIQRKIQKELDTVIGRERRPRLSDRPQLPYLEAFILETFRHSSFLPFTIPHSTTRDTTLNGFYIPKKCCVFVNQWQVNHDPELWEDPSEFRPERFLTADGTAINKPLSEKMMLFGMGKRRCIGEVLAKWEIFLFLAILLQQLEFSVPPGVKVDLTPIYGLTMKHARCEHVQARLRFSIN
Experimental: (§1) For the generation of transgenic cell lines, we used semi-adherent HEK293 cells (DSMZ, ACC305, human embryonic kidney cells) which were cultured on a daily basis in DMEM medium supplemented with 10% (FCS) and 1% penicillin/streptomycin. In a first step CYP1A2, CYP2C8, CYP2C9, CYP3A4, CYP2A6, and CYP2E1 cDNA were cloned into the plasmid pcDNATM3.1/V5-His TOPO® using human liver RNA as a template and using the following primers: CYP1A2 for5′-[…]-3′, CYP1A2 rev 5′-[…]-3′; CYP2C8 for 5′-[…]-3′, CYP2C8 rev 5′-[…]-3′; CYP2C9 for 5′-[…]-3′, CYP2C9 rev 5′-[…]-3′; CYP3A4 for 5′-[…]-3′, CYP3A4 rev 5′-[…]-3′, CYP2A6 for 5′-[…]-3′, CYP2A6 rev 5′-[…]-3′; CYP2E1 for 5′-[…]-3′, CYP2E1 rev 5′-[…]-3′. Final constructs were verified with Sanger DNA sequencing and restriction digestion. For transfection, 3 × 10^6 HEK293 cells were pre-incubated in a 10 cm dish in DMEM medium with 10% FCS, but without antibiotics, for 18 to 24 h. When the cells reached approximately 70% confluency, they were transfected using TransIT-LT1 transfection reagent (Biozol, Eiching, Germany). The TransIT-LT1 reagent was warmed to room temperature and vortexed. 1.63 mL Opti-MEM, 16.25 µL plasmid DNA (1 µg/µL), and 48.75 µL TransIT-LT1 reagent were mixed and incubated for 15 to 30 min. The mixture was then added dropwise to the medium of the cells, and the cells were incubated again at 37 °C and 5% CO2. After 24 h, the medium was replaced with standard medium and geneticin was added for selection (1 mg/mL). Cells were selected for 6–8 weeks in bulk culture, and single cell clones were obtained subsequently by limiting dilution. Each clone was checked for insertion by PCR using genomic DNA as a template.
(§2) Parallel samples were run without the addition of PCBs. At a confluence of 80%, PCBs (20 μM each, dissolved in ethanol) were added and cells were incubated for 24 h before harvest of supernatants. Supernatants were diluted 1:2 with 80 μL acetate buffer 0.1 M (pH = 5.3). 100 μL of this dilution were further incubated with 100 μL of ammonium acetate buffer 0.1 M (pH = 5.3) and 5 μL of β-Glucuronidase/Arylsulfatase enzyme overnight in a drying oven at 37 °C for enzymatic hydrolysis to release conjugated compounds. 50 μL of a mix of internal standards (10 ng/mL) and 600 μL of methanol were added to the samples, then mixed by vortexing for 1 min and centrifuged for 10 min at 3400g. The individual supernatants were transferred to glass LC vials and evaporated to approximately 50 μL at 45 °C under a gentle stream of nitrogen. Finally, 0.1 mol/ L ammonium acetate buffer was added to a final volume of 100 μL and then transferred to an insert for analysis.
(§3) HEK293 cells overexpressing the respective CYP enzymes were seeded onto 6-well plates and were treated with or without 10 µM of the respective probe drug in DMEM medium for 24 hours at 37 °C and 5 % CO2. After incubation 200 µL DMEM were collected, cells were washed with PBS and adherent cells were lysed in 500 µL methanol for 20 minutes. Analytes were measured by LC-MS/MS either in methanol cell lysates or in DMEM supernatant.
(§4) 50 µL of DMEM samples were protein precipitated by adding 200 µL of methanol and were centrifuged for 20 min, 17,000 g and 4°C. Supernatants were diluted in water or 40 % methanol according to dilution factor. Methanol cell lysates were diluted ½ with water and centrifuged for 20 min, 17,000 g and 4°C. 5 µL of the processed samples were injected for LC-MS analysis.

HEK293CYP2A6 cells = assay: Micronucleus assay in HEK293CYP2A6 cells; type: cell-based, human; details: positive control, 10 µm, 24 h
Experimental: Transgenic HEK293CYP2A6 and HEK293CYP2C9 cells were cultured in T25 flasks, with a seeding density of 1 × 10^6 cells per flask at 37 °C with 5% CO2. Cells were allowed to grow for 24 h geneticin free before PCBs were added (20 µM or 30 µM). Controls included cells grown in the presence of 1% ethanol (vol/vol) (negative control) or […] 4-nitroquinoline 1-oxide (positive control). Following further incubation for 24 h, cells were synchronized by adding Cytochalasin B. Subsequently, cells were harvested by trypsinization, centrifuged (2,000g, 10 min), and washed with DPBS (Dulbecco’s PBS). For hypotonic shock, 4 °C cold potassium chloride solution was added to the cells under agitation. Cells were completely resuspended and incubated at room temperature for 5 min. After centrifugation (2,500g, 10 min), the supernatant was discarded. To fix the cells, they were treated with a methanol/acetic acid solution (− 20 °C), with a minimum incubation time of 15 min at room temperature. Following centrifugation (2,500g, 10 min), the supernatant was discarded, and the fixation process was repeated at least three times. Finally, the samples were dissolved in 1 mL of fixative solution and incubated overnight at 4 °C. For analysis, two to three drops from each sample were placed on a glass slide, with intermittent heating of the slide. Subsequently, the cells were visualized with acridine orange, and using a fluorescence microscope (Leica DM6000B, Filter I3 450–490 nm), 2,000 cells per sample were counted.

CYP2A6 = target: T2, CYP2A6 (Homo sapiens, UniProt P11509); assay: Metabolism in transgenic HEK293 cells expressing CYP2A6; type: in vitro ADME; parameters: V5-His (vector-encoded) (C); expressed in transfected cells; details: 20 µM parent PCB, 24 h; for Quantification of metabolites generated from PCB28, 52, and 101: supernatant; for Metabolite concentration formed, range across cell clones: HEK293CYP2A6 cell lines
T2 sequence (P11509 1-494): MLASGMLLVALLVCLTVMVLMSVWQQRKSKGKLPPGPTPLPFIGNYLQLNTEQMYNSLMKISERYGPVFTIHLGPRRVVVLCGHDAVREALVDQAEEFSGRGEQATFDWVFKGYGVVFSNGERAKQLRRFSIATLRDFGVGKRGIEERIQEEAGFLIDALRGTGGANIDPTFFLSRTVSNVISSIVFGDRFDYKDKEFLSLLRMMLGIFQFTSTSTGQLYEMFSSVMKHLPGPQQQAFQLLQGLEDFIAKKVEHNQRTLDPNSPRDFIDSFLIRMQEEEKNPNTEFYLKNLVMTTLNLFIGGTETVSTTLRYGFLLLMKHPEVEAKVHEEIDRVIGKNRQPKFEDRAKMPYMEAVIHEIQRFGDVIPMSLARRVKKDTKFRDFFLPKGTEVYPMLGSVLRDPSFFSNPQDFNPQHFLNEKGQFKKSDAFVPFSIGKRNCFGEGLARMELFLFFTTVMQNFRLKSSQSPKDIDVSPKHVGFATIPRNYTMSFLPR
Experimental: as §1, §2, §3, §4

CYP2C8 = target: T3, CYP2C8 (Homo sapiens, UniProt P10632); assay: Metabolism in transgenic HEK293 cells expressing CYP2C8; type: in vitro ADME; details: 20 µM parent PCB, 24 h, supernatant
T3 construct: V5-His (vector-encoded) (C); expressed in transfected cells
T3 sequence (P10632 1-490): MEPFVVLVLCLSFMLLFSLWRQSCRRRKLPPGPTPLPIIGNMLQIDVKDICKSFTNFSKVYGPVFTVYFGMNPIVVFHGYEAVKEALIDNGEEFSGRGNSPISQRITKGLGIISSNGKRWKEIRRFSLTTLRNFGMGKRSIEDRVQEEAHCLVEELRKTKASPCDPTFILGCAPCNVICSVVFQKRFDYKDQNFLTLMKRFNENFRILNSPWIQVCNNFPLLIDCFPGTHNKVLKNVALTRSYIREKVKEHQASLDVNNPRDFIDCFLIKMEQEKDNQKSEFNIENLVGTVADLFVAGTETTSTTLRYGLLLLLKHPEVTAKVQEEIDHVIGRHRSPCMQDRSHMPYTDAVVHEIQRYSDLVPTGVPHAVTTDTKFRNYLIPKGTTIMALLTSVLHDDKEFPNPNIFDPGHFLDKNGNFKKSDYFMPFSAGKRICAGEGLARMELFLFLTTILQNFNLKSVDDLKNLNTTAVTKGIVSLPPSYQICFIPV
Experimental: as §1
as §2, with “analysis. […]” for “analysis.”

CYP3A4 = CYP3A4 (Homo sapiens, UniProt P08684); assay: Metabolism in transgenic HEK293 cells expressing CYP3A4; details: 20 µM parent PCB, 24 h, supernatant
Chain of CYP3A4 (P08684 whole entry): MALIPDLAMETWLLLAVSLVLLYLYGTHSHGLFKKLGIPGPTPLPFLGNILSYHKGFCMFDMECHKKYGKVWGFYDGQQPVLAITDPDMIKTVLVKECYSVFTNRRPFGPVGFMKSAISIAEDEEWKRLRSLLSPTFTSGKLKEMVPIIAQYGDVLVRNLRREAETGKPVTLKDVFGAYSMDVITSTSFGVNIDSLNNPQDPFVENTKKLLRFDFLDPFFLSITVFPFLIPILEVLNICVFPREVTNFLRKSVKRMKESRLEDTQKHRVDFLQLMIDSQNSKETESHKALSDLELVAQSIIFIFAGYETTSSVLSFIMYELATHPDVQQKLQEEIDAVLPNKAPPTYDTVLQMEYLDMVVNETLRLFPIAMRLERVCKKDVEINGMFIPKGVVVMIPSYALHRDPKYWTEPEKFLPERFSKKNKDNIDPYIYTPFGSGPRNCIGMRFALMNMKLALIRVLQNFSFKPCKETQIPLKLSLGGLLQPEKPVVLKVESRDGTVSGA
Experimental: as §1, §2, §3, §4

CYP2E1 = CYP2E1 (Homo sapiens, UniProt P05181); assay: Metabolism in transgenic HEK293 cells expressing CYP2E1; details: 20 µM parent PCB, 24 h, supernatant
Chain of CYP2E1 (P05181 whole entry): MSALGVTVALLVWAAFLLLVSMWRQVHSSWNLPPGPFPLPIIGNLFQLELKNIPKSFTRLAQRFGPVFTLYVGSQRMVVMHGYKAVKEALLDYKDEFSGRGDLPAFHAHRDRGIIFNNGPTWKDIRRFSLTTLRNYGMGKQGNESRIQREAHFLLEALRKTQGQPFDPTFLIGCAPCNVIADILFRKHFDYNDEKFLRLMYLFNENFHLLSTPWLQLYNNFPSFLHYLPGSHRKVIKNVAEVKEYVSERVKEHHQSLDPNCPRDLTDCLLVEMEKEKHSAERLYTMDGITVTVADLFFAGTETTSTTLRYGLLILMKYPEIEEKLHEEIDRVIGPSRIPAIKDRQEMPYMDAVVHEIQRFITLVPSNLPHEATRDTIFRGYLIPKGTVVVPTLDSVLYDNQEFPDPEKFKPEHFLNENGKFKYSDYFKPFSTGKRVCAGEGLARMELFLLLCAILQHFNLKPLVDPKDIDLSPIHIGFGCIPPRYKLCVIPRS
Experimental: as §1, §2, §3, §4

SMILES: Oc1ccc(-c2ccc(Cl)cc2)c(Cl)c1Cl [4′-OHCB25, 2′,3′,4-trichloro-4′-biphenylol]
- Metabolite concentration formed, range across cell clones (CYP1A2; HEK293CYP1A2 cell clones, 20 µM PCB28, 24 h): 0.15–0.23 µg/L and 0.56–0.84 nM

SMILES: O=[N+]([O-])c1cc[n+]([O-])c2ccccc12 [4-nitroquinoline-(1)-oxide, reference compound]
- Micronucleus formation compared to the negative control ethanol (HEK293CYP2A6 cells): consistent and significant elevation

SMILES: Oc1cc(Cl)c(-c2cc(Cl)ccc2Cl)cc1Cl [4-OHCB52, 2,2′,5,5′-tetrachloro-4-biphenylol]
- Quantification of metabolites generated from PCB28, 52, and 101 (CYP2A6; CYP2A6 Clone B7): 319,55 nM
- Quantification of metabolites generated from PCB28, 52, and 101 (CYP2A6; CYP2A6 Clone C4): 1029,16 nM
- Quantification of metabolites generated from PCB28, 52, and 101 (CYP2A6; CYP2A6 Clone C5): 30,78 nM
- Metabolite concentration formed, range across cell clones (CYP2A6): 9.48 to 316.89 µg/L
- Quantification of metabolites generated from PCB28, 52, and 101 (CYP2C8; CYP2C8 Clone A3): <LOQ
- Quantification of metabolites generated from PCB28, 52, and 101 (CYP2C8; CYP2C8 Clone D8): 0,1 nM
- Quantification of metabolites generated from PCB28, 52, and 101 (CYP2C8; CYP2C8 Clone D9): <LOQ
- Quantification of metabolites generated from PCB28, 52, and 101 (CYP3A4; CYP3A4 Clone B4): 0,23 nM
- Quantification of metabolites generated from PCB28, 52, and 101 (CYP3A4; CYP3A4 Clone D10): 0,72 nM
- Quantification of metabolites generated from PCB28, 52, and 101 (CYP3A4; CYP3A4 Clone E6): 0,54 nM
- Quantification of metabolites generated from PCB28, 52, and 101 (CYP2E1; CYP2E1 Clone B4): 5,55 nM
- Quantification of metabolites generated from PCB28, 52, and 101 (CYP2E1; CYP2E1 Clone B5): 8,9 nM
- Quantification of metabolites generated from PCB28, 52, and 101 (CYP2E1; CYP2E1 Clone E6): 10,23 nM

SMILES: Oc1cc(Cl)cc(-c2cc(Cl)ccc2Cl)c1Cl [3-OHCB52, 2,2′,5,5′-tetrachloro-3-biphenylol]
- Quantification of metabolites generated from PCB28, 52, and 101 (CYP2A6; CYP2A6 Clone B7): 0,87 nM
- Quantification of metabolites generated from PCB28, 52, and 101 (CYP2A6; CYP2A6 Clone C4): 0,75 nM
- Metabolite concentration formed, range across cell clones (CYP2A6): 0.23–0.27 µg/L and 0.74–0.87 nM
- Quantification of metabolites generated from PCB28, 52, and 101 (CYP2C8; CYP2C8 Clone A3): <LOQ
- Quantification of metabolites generated from PCB28, 52, and 101 (CYP2C8; CYP2C8 Clone D8): 0,09 nM
- Quantification of metabolites generated from PCB28, 52, and 101 (CYP2C8; CYP2C8 Clone D9): <LOQ
- Quantification of metabolites generated from PCB28, 52, and 101 (CYP3A4; CYP3A4 Clone B4): 0,21 nM
- Quantification of metabolites generated from PCB28, 52, and 101 (CYP3A4; CYP3A4 Clone D10): 0,66 nM
- Quantification of metabolites generated from PCB28, 52, and 101 (CYP3A4; CYP3A4 Clone E6): 0,45 nM
- Quantification of metabolites generated from PCB28, 52, and 101 (CYP2E1; CYP2E1 Clone B4): 0,38 nM
- Quantification of metabolites generated from PCB28, 52, and 101 (CYP2E1; CYP2E1 Clone B5): 0,59 nM
- Quantification of metabolites generated from PCB28, 52, and 101 (CYP2E1; CYP2E1 Clone E6): 0,74 nM

SMILES: Cn1c(=O)c2c(ncn2C)n(C)c1=O [Caffeine, reference compound]
- Conversion product (CYP1A2; HEK293CYP1A2, 10 µM substrate, 24 h): Paraxanthine
